In PubChem BioAssay (NCI):
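Test compounds were applied to cells in 96-well plates for 48 hours at 5 doses. At the GI50, growth is halved. At the TGI there is no net growth.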

Assays:
Assay in all cases: NCI-60 cell line screen, 48 h
786-0 renal = test system: 786-0 renal
BT-549 breast = test system: BT-549 breast
EKVX NSCLC = test system: EKVX NSCLC
HOP-92 NSCLC = test system: HOP-92 NSCLC
HS 578T breast = test system: HS 578T breast
K-562 leukemia = test system: K-562 leukemia
MCF7 breast = test system: MCF7 breast
SF-268 CNS = test system: SF-268 CNS
SK-MEL-2 melanoma = test system: SK-MEL-2 melanoma
SW-620 colon = test system: SW-620 colon

SMILES: O=C(Nn1c2c(sc1=NC1CC1)C(=O)c1ccccc1C2=O)c1cc2ccc1CCc1ccc(cc1)CC2
- GI50 (786-0 renal): 2.75 µM
- TGI (786-0 renal): 7.93 µM
- GI50 (BT-549 breast): 1.5 µM
- TGI (BT-549 breast): 2.91 µM
- GI50 (EKVX NSCLC): 1.87 µM
- TGI (EKVX NSCLC): 12.5 µM
- GI50 (HOP-92 NSCLC): 2.26 µM
- TGI (HOP-92 NSCLC): 14.4 µM
- GI50 (HS 578T breast): 2.09 µM
- TGI (HS 578T breast): 6.03 µM
- GI50 (K-562 leukemia): 2.43 µM
- TGI (K-562 leukemia): > 100 µM
- GI50 (MCF7 breast): 1.42 µM
- TGI (MCF7 breast): 3.29 µM
- GI50 (SF-268 CNS): 2.54 µM
- TGI (SF-268 CNS): 11 µM
- GI50 (SK-MEL-2 melanoma): 2.47 µM
- TGI (SK-MEL-2 melanoma): 7.25 µM
- GI50 (SW-620 colon): 1.92 µM
- TGI (SW-620 colon): 4.32 µM

SMILES: COc1cc(/C=N/O)nc(-c2ccccn2)c1
- GI50 (786-0 renal): 0.465 µM
- TGI (786-0 renal): 27.5 µM
- GI50 (BT-549 breast): 0.803 µM
- TGI (BT-549 breast): > 100 µM
- GI50 (EKVX NSCLC): 0.342 µM
- TGI (EKVX NSCLC): > 100 µM
- GI50 (HOP-92 NSCLC): 0.551 µM
- TGI (HOP-92 NSCLC): > 100 µM
- GI50 (HS 578T breast): 3.76 µM
- TGI (HS 578T breast): > 100 µM
- TGI (K-562 leukemia): > 100 µM
- GI50 (MCF7 breast): 0.347 µM
- TGI (MCF7 breast): > 100 µM
- GI50 (SF-268 CNS): 0.357 µM
- TGI (SF-268 CNS): 68.2 µM
- GI50 (SK-MEL-2 melanoma): 1.86 µM
- TGI (SK-MEL-2 melanoma): > 100 µM
- GI50 (SW-620 colon): 0.415 µM
- TGI (SW-620 colon): > 100 µM

SMILES: c1cc(-c2cnn3nc(N4CCOCC4)ccc23)nc(NC2CC2)n1
- GI50 (786-0 renal): 8.9 µM
- TGI (786-0 renal): > 25 µM
- GI50 (BT-549 breast): 8.15 µM
- TGI (BT-549 breast): > 25 µM
- GI50 (EKVX NSCLC): 10.5 µM
- TGI (EKVX NSCLC): > 25 µM
- GI50 (HOP-92 NSCLC): 5.64 µM
- TGI (HOP-92 NSCLC): > 25 µM
- GI50 (HS 578T breast): 8.12 µM
- TGI (HS 578T breast): > 22.8 µM
- GI50 (K-562 leukemia): > 23.6 µM
- TGI (K-562 leukemia): > 25 µM
- GI50 (MCF7 breast): 5.38 µM
- TGI (MCF7 breast): > 25 µM
- GI50 (SF-268 CNS): 8.14 µM
- TGI (SF-268 CNS): 24.6 µM
- GI50 (SK-MEL-2 melanoma): 7.82 µM
- TGI (SK-MEL-2 melanoma): 21.6 µM
- GI50 (SW-620 colon): 8.9 µM
- TGI (SW-620 colon): > 25 µM
